Data from ChEMBL document CHEMBL1122462, “Potential antiatherosclerotic agents. 4. [(Functionalized-alkyl)amino]benzoic acid analogues of cetaben” (1983).

Assays:
[1] = tested on: Rattus norvegicus; experiment: In vivo Triglyceride lowering activity at dose as 0.01 % of the diet; assay type: functional
[2] = tested on: Rattus norvegicus; experiment: In vivo sterol lowering activity at dose of 0.10 % of the diet; assay type: functional
[3] = tested on: Rattus norvegicus; experiment: In vivo sterol lowering activity, dosed as 0.03 % of the diet; assay type: functional
[4] = tested on: Rattus norvegicus; experiment: In vivo Sterol lowering activity at dose as 0.01% of the diet; assay type: functional
[5] = tested on: Rattus norvegicus; experiment: In vivo Triglyceride lowering activity at a dose of 0.10 % of the diet; assay type: functional
[6] = tested on: Rattus norvegicus; experiment: In vivo Triglyceride lowering activity at dose as 0.03 % of the diet; assay type: functional
[7] = molecular target: T1, Sterol O-acyltransferase 1 (Rattus norvegicus) (UniProt O70536); experiment: In vitro inhibitory activity against acyl coenzyme A:cholesterol acyltransferase; parameters: concentration or dose not given beside the values; conditions: concentration not given here
T1 sequence (whole entry): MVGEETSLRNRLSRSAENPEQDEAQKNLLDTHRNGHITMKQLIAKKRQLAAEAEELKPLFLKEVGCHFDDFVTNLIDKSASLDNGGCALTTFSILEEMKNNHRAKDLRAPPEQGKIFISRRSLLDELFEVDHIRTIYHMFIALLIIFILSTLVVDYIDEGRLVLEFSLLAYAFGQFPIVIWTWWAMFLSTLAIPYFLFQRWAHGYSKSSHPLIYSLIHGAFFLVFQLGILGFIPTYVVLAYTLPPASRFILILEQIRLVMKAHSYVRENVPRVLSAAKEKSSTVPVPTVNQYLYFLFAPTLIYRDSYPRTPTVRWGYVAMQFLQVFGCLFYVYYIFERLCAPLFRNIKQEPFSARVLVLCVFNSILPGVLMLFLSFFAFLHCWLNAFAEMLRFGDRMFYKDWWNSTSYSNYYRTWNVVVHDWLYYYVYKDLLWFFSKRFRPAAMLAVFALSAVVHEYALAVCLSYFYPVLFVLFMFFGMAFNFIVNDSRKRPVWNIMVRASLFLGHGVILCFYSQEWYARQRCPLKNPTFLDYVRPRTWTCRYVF

## CCCCCCCCCCC(N)CCCCCNc1ccc(C(=O)OCC)cc1 (stereo unspecified)
[1]
  serum triglyceride level (% of control): 68%
[2]
  serum sterol level, % of control: 84%
[3]
  serum sterol level, percent of control: 99%
[4]
  serum sterol level, percent of control: 97%
[5]
  serum triglyceride level (% of control): <45%
[6]
  triglyceride lowering activity: 70%
[7]
  inhibition: 0%

## CC(C)(C)CCCCCCCCCCCCNc1ccc(C(=O)O)cc1
[1]
  serum triglyceride level (% of control): <75%
[2]
  serum sterol level, % of control: <75%
[3]
  serum sterol level, percent of control: <77%
[4]
  serum sterol level, percent of control: 94%
[5]
  serum triglyceride level (% of control): <26%
[6]
  triglyceride lowering activity: <53%
[7]
  inhibition: < 59%

## CCCCCCCCCCCCCCCCN(CC(=O)O)c1ccc(C(=O)O)cc1
[1]
  serum triglyceride level (% of control): 105%
[2]
  serum sterol level, % of control: 93%
[3]
  serum sterol level, percent of control: 109%
[4]
  serum sterol level, percent of control: 105%
[5]
  serum triglyceride level (% of control): 99%
[6]
  triglyceride lowering activity: 100%
[7]
  inhibition: 15%

## CCCCCCCCCCC(=O)CCCCCNc1ccc(C(=O)OCC)cc1
[1]
  serum triglyceride level (% of control): 103%
[2]
  serum sterol level, % of control: 107%
[3]
  serum sterol level, percent of control: 104%
[4]
  serum sterol level, percent of control: 109%
[5]
  serum triglyceride level (% of control): 81%
[6]
  triglyceride lowering activity: 86%
[7]
  inhibition: < 19%

## O=C(O)c1ccc(NCCCCCCCCCCCNc2ccc(C(=O)O)cc2)cc1
[1]
  serum triglyceride level (% of control): <68%
[2]
  serum sterol level, % of control: 87%
[3]
  serum sterol level, percent of control: 94%
[4]
  serum sterol level, percent of control: 99%
[5]
  serum triglyceride level (% of control): 84%
[6]
  triglyceride lowering activity: 85%
[7]
  inhibition: < 30%

## CCCCSCCCCCCCCCCCNc1ccc(C(=O)O)cc1
[1]
  serum triglyceride level (% of control): 79%
[2]
  serum sterol level, % of control: <78%
[3]
  serum sterol level, percent of control: 91%
[4]
  serum sterol level, percent of control: 91%
[5]
  serum triglyceride level (% of control): <62%
[6]
  triglyceride lowering activity: <71%
[7]
  inhibition: < 40%

## CCOC(=O)c1ccc(NC(=O)CCCCCCCCCCCCCCCBr)cc1
[1]
  serum triglyceride level (% of control): 84%
[2]
  serum sterol level, % of control: <86%
[3]
  serum sterol level, percent of control: 93%
[4]
  serum sterol level, percent of control: 96%
[5]
  serum triglyceride level (% of control): 79%
[6]
  triglyceride lowering activity: 94%
[7]
  inhibition: < 32%

## CCOC(=O)c1ccc(NCCCCCCCCCCCCCC(C)C)cc1
[1]
  serum triglyceride level (% of control): 84%
[2]
  serum sterol level, % of control: <80%
[3]
  serum sterol level, percent of control: <89%
[4]
  serum sterol level, percent of control: 92%
[5]
  serum triglyceride level (% of control): <61%
[6]
  triglyceride lowering activity: 84%
[7]
  inhibition: 9%

## O=C(O)c1ccc(NCCCCCCCCCCCOc2ccc(C(=O)O)cc2)cc1
[1]
  serum triglyceride level (% of control): 90%
[2]
  serum sterol level, % of control: 103%
[3]
  serum sterol level, percent of control: 91%
[4]
  serum sterol level, percent of control: 103%
[5]
  serum triglyceride level (% of control): 91%
[6]
  triglyceride lowering activity: 79%
[7]
  inhibition: < 36%

## CCOC(=O)c1ccc(NCCCCCCCCCCC[Si](C)(C)C)cc1
[1]
  serum triglyceride level (% of control): 113%
[2]
  serum sterol level, % of control: <57%
[3]
  serum sterol level, percent of control: 87%
[4]
  serum sterol level, percent of control: 85%
[5]
  serum triglyceride level (% of control): <78%
[6]
  triglyceride lowering activity: 111%
[7]
  inhibition: 17%

## CCOC(=O)c1ccc(NCCCCCCCCCCCCCCCC(=O)OC)cc1
[1]
  serum triglyceride level (% of control): 140%
[2]
  serum sterol level, % of control: 104%
[3]
  serum sterol level, percent of control: 110%
[4]
  serum sterol level, percent of control: 105%
[5]
  serum triglyceride level (% of control): 129%
[6]
  triglyceride lowering activity: 173%
[7]
  inhibition: 0%

## CCOC(=O)c1ccc(NCCCCCCCCCCCCCC[Si](C)(C)C)cc1
[1]
  serum triglyceride level (% of control): <77%
[2]
  serum sterol level, % of control: <53%
[3]
  serum sterol level, percent of control: <66%
[4]
  serum sterol level, percent of control: 84%
[5]
  serum triglyceride level (% of control): <62%
[6]
  triglyceride lowering activity: <66%
[7]
  inhibition: < 50%

## CCCC[S+]([O-])CCCCCCCCCCCNc1ccc(C(=O)O)cc1 (stereo unspecified)
[1]
  serum triglyceride level (% of control): 87%
[2]
  serum sterol level, % of control: 91%
[3]
  serum sterol level, percent of control: 95%
[4]
  serum sterol level, percent of control: 106%
[5]
  serum triglyceride level (% of control): <66%
[6]
  triglyceride lowering activity: 94%
[7]
  inhibition: < 15%

## CCOC(=O)c1ccc(NCC(F)(F)C(F)(F)C(F)(F)C(F)(F)C(F)(F)C(F)(F)C(F)(F)F)cc1
[1]
  serum triglyceride level (% of control): <47%
[2]
  serum sterol level, % of control: <44%
[3]
  serum sterol level, percent of control: <65%
[4]
  serum sterol level, percent of control: <81%
[5]
  serum triglyceride level (% of control): <35%
[6]
  triglyceride lowering activity: <43%
[7]
  inhibition: 7%

## CCOC(=O)c1ccc(NCCCCCCCCCCCCCCCCSC(C)=O)cc1
[1]
  serum triglyceride level (% of control): 91%
[2]
  serum sterol level, % of control: 93%
[3]
  serum sterol level, percent of control: 96%
[4]
  serum sterol level, percent of control: 98%
[5]
  serum triglyceride level (% of control): <57%
[6]
  triglyceride lowering activity: 75%
[7]
  inhibition: 0%

## CCOC(=O)c1ccc(NC(=O)CCCCCCCCCCCCC[Si](C)(C)C)cc1
[1]
  serum triglyceride level (% of control): 99%
[2]
  serum sterol level, % of control: 101%
[3]
  serum sterol level, percent of control: 98%
[4]
  serum sterol level, percent of control: 99%
[5]
  serum triglyceride level (% of control): 97%
[6]
  triglyceride lowering activity: 91%
[7]
  inhibition: < 21%

## CCOC(=O)c1ccc(NCCCCCCCCCCCCCCCCBr)cc1
[1]
  serum triglyceride level (% of control): 100%
[2]
  serum sterol level, % of control: 93%
[3]
  serum sterol level, percent of control: 98%
[4]
  serum sterol level, percent of control: 99%
[5]
  serum triglyceride level (% of control): 100%
[6]
  triglyceride lowering activity: 84%
[7]
  inhibition: 10%

## CCCCCCCCCCCCCCCCNc1ccc(C(=O)O)cc1 [CETABEN]
[1]
  serum triglyceride level (% of control): <71%
[2]
  serum sterol level, % of control: <54%
[3]
  serum sterol level, percent of control: <71%
[4]
  serum sterol level, percent of control: <72%
[5]
  serum triglyceride level (% of control): <31%
[6]
  triglyceride lowering activity: <45%
[7]
  inhibition: < 57%

## C[Si](C)(C)CCCCCCCCCCCNc1ccc(C(=O)[O-])cc1.[Na+]
[1]
  serum triglyceride level (% of control): 122%
[2]
  serum sterol level, % of control: <48%
[3]
  serum sterol level, percent of control: <73%
[4]
  serum sterol level, percent of control: <81%
[5]
  serum triglyceride level (% of control): <46%
[6]
  triglyceride lowering activity: 88%

## CC(C)(C)CCCCCCCCCCCCCCNc1ccc(C(=O)[O-])cc1.[Na+]
[1]
  serum triglyceride level (% of control): <66%
[2]
  serum sterol level, % of control: <44%
[3]
  serum sterol level, percent of control: <53%
[4]
  serum sterol level, percent of control: <72%
[5]
  serum triglyceride level (% of control): <30%
[6]
  triglyceride lowering activity: <55%

## O=C(O)CCCCCCCCCCCCCCCNc1ccc(C(=O)O)cc1
[1]
  serum triglyceride level (% of control): 124%
[2]
  serum sterol level, % of control: 92%
[3]
  serum sterol level, percent of control: 92%
[4]
  serum sterol level, percent of control: 101%
[5]
  serum triglyceride level (% of control): 96%
[6]
  triglyceride lowering activity: 90%

## C[Si](C)(C)CCCCCCCCCCCNc1ccc(C(=O)O)cc1
[1]
  serum triglyceride level (% of control): <67%
[2]
  serum sterol level, % of control: <44%
[3]
  serum sterol level, percent of control: <69%
[4]
  serum sterol level, percent of control: <79%
[5]
  serum triglyceride level (% of control): <25%
[6]
  triglyceride lowering activity: <54%

## CCCCCCCCCC/C(CCCCCNc1ccc(C(=O)O)cc1)=N/O
[1]
  serum triglyceride level (% of control): <52%
[2]
  serum sterol level, % of control: <75%
[3]
  serum sterol level, percent of control: <84%
[4]
  serum sterol level, percent of control: 86%
[5]
  serum triglyceride level (% of control): <31%
[6]
  triglyceride lowering activity: <30%

## C[Si](C)(C)CCCNc1ccc(C(=O)[O-])cc1.[Na+]
[1]
  serum triglyceride level (% of control): 102%
[2]
  serum sterol level, % of control: <64%
[3]
  serum sterol level, percent of control: <82%
[4]
  serum sterol level, percent of control: 87%
[5]
  serum triglyceride level (% of control): <77%
[6]
  triglyceride lowering activity: 85%

## O=C([O-])c1ccc(NCCCCCCCCCCCCCCCC(F)(F)F)cc1.[Na+]
[1]
  serum triglyceride level (% of control): <63%
[2]
  serum sterol level, % of control: <34%
[3]
  serum sterol level, percent of control: <62%
[4]
  serum sterol level, percent of control: <75%
[5]
  serum triglyceride level (% of control): <21%
[6]
  triglyceride lowering activity: <39%

## CCCCCCCCCCCCCCCCN(CS(=O)(=O)[O-])c1ccc(C(=O)O)cc1.[Na+]
[1]
  serum triglyceride level (% of control): 79%
[2]
  serum sterol level, % of control: <72%
[3]
  serum sterol level, percent of control: <87%
[4]
  serum sterol level, percent of control: 91%
[5]
  serum triglyceride level (% of control): <49%
[6]
  triglyceride lowering activity: <57%

## CCCCCCCCCCCCCCCCN(CS(=O)(=O)[O-])c1ccc(C(=O)[O-])cc1.[Na+].[Na+]
[1]
  serum triglyceride level (% of control): 77%
[2]
  serum sterol level, % of control: <75%
[3]
  serum sterol level, percent of control: 91%
[4]
  serum sterol level, percent of control: 89%
[5]
  serum triglyceride level (% of control): 89%
[6]
  triglyceride lowering activity: 95%

## C[Si](C)(C)CCCNc1ccc(C(=O)O)cc1
[1]
  serum triglyceride level (% of control): <69%
[2]
  serum sterol level, % of control: <82%
[3]
  serum sterol level, percent of control: 90%
[4]
  serum sterol level, percent of control: 100%
[5]
  serum triglyceride level (% of control): <47%
[6]
  triglyceride lowering activity: <58%
